Measured values: publication PMC6838142, “Nano-Antagonist Alleviates Inflammation and Allows for MRI of Atherosclerosis” (Nanotheranostics, 2019)

Assays:
[1] = tested on: recombinant CCR2 protein; experiment: Competition with CCL2 binding to immobilized CCR2; conditions: free peptide 1 mM in dimethylformamide, 1 h room temperature, recombinant human CCL2; OD 450 nm; three independent experiments
Description: A sandwich-type plate-based immunoassay was developed in-house to study CCR2 receptor binding. Black opaque plates (for fluorescence studies) or clear high protein binding plates (for absorbance studies) were coated with recombinant CCR2 protein at 2 µg/mL in PBS overnight at 4 °C. Plates were washed 5 times with PBS and treated as follows: for nanoparticles binding, varying concentrations of fluorescent nanoparticles or vehicle control (see above) in PBS were added to the opaque plates and incubated for 4 h at room temperature. For peptide competition/binding studies, recombinant human CCL2 was added in clear plates at varying concentrations in PBS simultaneously with a large excess of peptides (1 mM final concentration, dissolved in dimethylformamide) and incubated for 1 h at room temperature. All plates were washed 5 times with PBS and fluorescence in opaque plates was read at 550 nm excitation and 620 nm emissions. […] Clear plates were washed and incubated with 0.1 µg/mL streptavidin-HRP. Finally, clear plates were washed and incubated with SigmaFast OPD reagent in the presence of hydrogen peroxide-urea, as per the manufacturer's instructions. After 30 min incubation period at 37 °C, the plates were read at 450 nm on a multiwell plate reader as described above. Fluorescence emission values and OD at 450 nm were plotted against concentration using a 4-parametric fit.

[2] = tested on: RAW cells; experiment: Flow cytometry competition with excess free peptide; type: cell-based, mouse; conditions: excess (1 mM) free peptide
Description: Figure 1 Screening identifies CCTV as an anti-inflammatory nanoparticle with high affinity for CC chemokine receptor 2. A) A screening of a small library of nanoparticles in lipopolysaccharide (LPS)-stimulated macrophage reporter cells (RAW-Blue) identified CCTV, which downregulates nuclear factor-kappa B (NF-κB) activity. Each point on the plot represents a relative activity of NF-κB (X-coordinate) and corresponding nanoparticle content per mg of cell protein (Y-coordinate) calculated from nanoparticle fluorescence. […] Dexamethasone (Dex) is an NF-κB inhibitor and was used as a positive control. Vehicle-treated and unstained (US) cells served as a negative control. B) CCTV binding to the cell surface was validated in RAW cells using fluorescence microscopy. The cells were stained at 4 °C or room temperature for 30 min with CCTV or vehicle nanoparticles (sudo-colored green). […] E) The Basic Local Alignment Search Tool (BLAST) analysis determined that CCTV peptide sequence repeats in mouse and human CC chemokine receptor family. […]
For a targeted nanotherapy to be effective, the nanoparticles must have affinity to a specific cell type, usually determined by cell surface binding. […] Thus, we used the mouse macrophage reporter cell line RAW-Blue that allowed for monitoring activity of Nuclear Factor-kappa B (NF-kB) and also enabled In vitro quantitation of nanoparticle binding to the cell surface. […]

[3] = tested on: BMDMs from CCR2-knockout mice; experiment: Actin polymerization in BMDMs from CCR2-knockout mice; type: cell-based, mouse
Description: BMDMs were seeded and cultured on #1 glass coverslips in the presence or absence of 10 μM CCTV or VTCC for 6 h. Next, cells were washed with PBS and recombinant mouse CCL2 was added to a final concentration of 500 nM. Then, cells were incubated for varying times (indicated in Figure 2G), after which they were immediately placed on ice and washed 3 times with cold PBS. Actin polymerization was then visualized following staining with phalloidin Alexa Fluor 633, according to the manufacturer's instructions.

| Substance | competition with CCL2 binding to CCR2 [1] | reduction of CCTV nanoparticle staining by free peptide [2] | actin polymerization in CCR2-knockout BMDMs [3] |
| --- | --- | --- | --- |
| CCTV [free CCTV peptide, free (unconjugated) CCTV tetrapeptide] | insignificantly competed with receptor binding of natural CCR2 ligand | did not show appreciable reduction in CCTV staining in RAW cells | – |
| CCL2: recombinant mouse CCL2/MCP-1 protein, natural CCR2 ligand | – | – | neither nanoparticles nor CCL2 are able to induce polymerization |
